Source: patent US20060140869A1, “Polymeric contrast agents for use in medical imaging” (priority 2004, published 2006)

Test system: rat mammary adenocarcinoma (Mat B) tumor
Experiment: MR imaging of subcutaneous Mat B tumors in rats after intravenous injection of polymeric contrast agent
Assay type: in vivo
Conditions: Mat B tumor in Fisher female rats
Experimental: Fisher female rats were implanted subcutaneously with rat mammary adenocarcinoma cells (ATTC Mat B cells) that were grown to a suitable density in tissue culture. The implanted cells grew into tumors of 1-2 cm diameter in about 10 to 14 days and continued to grow to larger sizes when experiments extended beyond that time frame.
The reptating polymer that was used (Polylysine-Gd-DTPA) was synthesized using a synthesis method described above with polymer length of 780 monomer units, molecular weight of 460 kDaltons, and about 98% of lysines acylated with DTPA (i.e. about 764 Gd ions). The animals were injected intravenously at a dose of 0.025 mmoles Gd/kG. FIG. 1 are a series of images taken wherein the imaging was done pre-injection, one minute after injection, 60 minutes after injection, and 24 hours after injection with a T1 weighted spin echo pulse sequence (TR=250 ms, TE=9 ms), 12 centimeter FOV, 1 millimeter slices. Receive coil was a solenoid coil of about 5 centimeters diameter. Imaging was done on a Signa 1.5 Tesla scanner.
FIG. 2 is a graph of the slopes in signal change for all the pixels in the tumor and the highest 10% of pixels in the tumor. The signals are heterogenous in space due to angiogenesis being most prevalent in the outer rim of the tumor. Thus in order to capture the regions of interest with high permeability, the average signal associated with the pixels of the entire tumor in the image slice is plotted in addition to the average signal associated with the highest 10% of the pixels. The highest 10% of the pixels represents the hypermeable regions associated with angiogenic processes. The use of all pixels represents the average values for the entire tumor which includes then the center of tumors which are often necrotic and unreactive in terms of blood perfusion. These regions are not biologically relevant and thus the total average values have more “noise” that are associated with the necrotic processes which are not of direct interest in the present case. […]

[1] = linear regression fit, intravenous injection, T1 weighted spin echo, 1.5 Tesla

Row | Substance | magnetic resonance signal change compared with the polymer of Example 2 (0.025 mmoles Gd/kG intravenously) | slope of signal change, all the pixels in the tumor [1] | slope of signal change, highest 10% of the pixels in the tumor [1]
1 | Polylysine-Gd-DTPA [Example 1] | enhanced magnetic resonance signals | – | –
2 | Polylysine-Gd-DTPA [Example 2] | – | 7 % per hour | 14 % per hour
